Assay results as given in patent US7214690B2, “Tricyclic quinolinone and tricyclic quinoline androgen receptor modulator compounds and methods” (Ligand Pharmaceuticals Incorporated, priority 2001, dated 2007).
Like-named read-outs stand apart in the source and are kept apart here.

Legend:
MR = target: T1, MR (Homo sapiens, UniProt P08235); test: co-transfection assay, MR; type: cell-based
T1 construct: expressed in transfected cells; host or cells: background cell substantially devoid of endogenous IRs (CV-1 described for the co-transfection assay)
T1 sequence (P08235 1-984): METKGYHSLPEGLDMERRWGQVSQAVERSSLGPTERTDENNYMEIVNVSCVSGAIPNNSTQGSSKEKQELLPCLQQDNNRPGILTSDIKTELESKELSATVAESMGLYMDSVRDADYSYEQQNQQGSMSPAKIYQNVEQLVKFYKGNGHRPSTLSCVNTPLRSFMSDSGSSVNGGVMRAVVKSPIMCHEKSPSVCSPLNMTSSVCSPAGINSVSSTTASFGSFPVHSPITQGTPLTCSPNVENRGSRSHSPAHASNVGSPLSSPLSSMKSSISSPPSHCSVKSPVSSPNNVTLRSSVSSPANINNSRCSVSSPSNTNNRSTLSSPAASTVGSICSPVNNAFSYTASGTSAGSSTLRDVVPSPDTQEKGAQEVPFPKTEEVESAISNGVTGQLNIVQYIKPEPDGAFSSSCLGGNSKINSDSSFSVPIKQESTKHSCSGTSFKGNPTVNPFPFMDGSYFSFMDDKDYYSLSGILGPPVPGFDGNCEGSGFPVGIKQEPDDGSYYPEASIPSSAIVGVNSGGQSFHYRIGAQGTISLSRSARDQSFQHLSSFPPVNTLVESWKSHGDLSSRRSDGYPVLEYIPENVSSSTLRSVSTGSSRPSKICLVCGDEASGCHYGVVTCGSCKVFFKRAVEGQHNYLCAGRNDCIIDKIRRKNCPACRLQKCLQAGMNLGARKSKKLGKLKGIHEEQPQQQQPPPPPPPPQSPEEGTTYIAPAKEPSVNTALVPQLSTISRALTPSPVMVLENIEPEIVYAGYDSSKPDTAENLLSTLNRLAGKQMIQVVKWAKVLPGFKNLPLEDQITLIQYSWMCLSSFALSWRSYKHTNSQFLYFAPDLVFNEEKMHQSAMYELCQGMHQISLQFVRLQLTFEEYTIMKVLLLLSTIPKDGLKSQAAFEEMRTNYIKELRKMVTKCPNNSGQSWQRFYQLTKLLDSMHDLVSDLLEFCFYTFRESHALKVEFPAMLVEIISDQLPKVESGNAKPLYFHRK
Experimental: (§1) CV-1 cells (African green monkey kidney fibroblasts) were cultured in the presence of Dulbecco's Modified Eagle Medium (DMEM) supplemented with 10% charcoal resin-stripped fetal bovine serum (CH-FBS) then transferred to 96-well microtiter plates one day prior to transfection.
(§2) Three to four replicates were used for each sample.
(§3) After 40 hours, the cells were washed with PBS, lysed with a Triton X-100-based buffer and assayed for LUC and β-Gal activities using a luminometer or spectrophotometer, respectively. For each replicate, the normalized response (NR) was calculated as: LUC response/β-Gal rate • where β-Gal rate=β-Gal/β-Gal incubation time.

human AR = target: T2, human AR (Homo sapiens, UniProt P10275); test: co-transfection assay, hAR in CV-1 cells (MTV-LUC reporter); type: cell-based
T2 construct: expressed in transfected cells; host or cells: CV-1 cells (African green monkey kidney fibroblasts)
T2 sequence (P10275 1-920): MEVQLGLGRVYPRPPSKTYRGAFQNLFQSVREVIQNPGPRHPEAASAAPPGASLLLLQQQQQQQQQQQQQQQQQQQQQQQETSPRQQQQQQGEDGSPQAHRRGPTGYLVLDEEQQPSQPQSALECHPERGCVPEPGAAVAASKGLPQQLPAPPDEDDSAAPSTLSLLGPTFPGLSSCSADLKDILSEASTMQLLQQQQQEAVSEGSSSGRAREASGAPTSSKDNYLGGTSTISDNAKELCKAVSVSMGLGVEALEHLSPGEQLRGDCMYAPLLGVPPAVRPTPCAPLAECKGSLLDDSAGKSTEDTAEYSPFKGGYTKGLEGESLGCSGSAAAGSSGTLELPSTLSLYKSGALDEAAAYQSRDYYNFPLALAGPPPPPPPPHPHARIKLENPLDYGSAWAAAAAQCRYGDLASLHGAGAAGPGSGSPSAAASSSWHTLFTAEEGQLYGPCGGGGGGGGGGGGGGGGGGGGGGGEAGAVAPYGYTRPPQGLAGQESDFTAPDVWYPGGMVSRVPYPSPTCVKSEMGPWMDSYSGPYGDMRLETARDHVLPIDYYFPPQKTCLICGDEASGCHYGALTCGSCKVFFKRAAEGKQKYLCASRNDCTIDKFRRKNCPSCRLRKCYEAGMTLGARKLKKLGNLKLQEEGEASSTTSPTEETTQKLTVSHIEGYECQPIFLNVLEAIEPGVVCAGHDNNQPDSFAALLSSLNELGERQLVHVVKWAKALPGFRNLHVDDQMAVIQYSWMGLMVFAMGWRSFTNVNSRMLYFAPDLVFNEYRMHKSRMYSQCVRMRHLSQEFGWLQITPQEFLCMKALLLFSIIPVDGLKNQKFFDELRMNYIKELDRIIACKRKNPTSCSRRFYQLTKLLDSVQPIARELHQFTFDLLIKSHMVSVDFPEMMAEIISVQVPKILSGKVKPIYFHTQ
Text: The co-transfection assay provides a method for identifying functional agonists and partial agonists that mimic, or antagonists that inhibit, the effect of native hormones and quantifying their activity for responsive IR proteins. In this regard, the co-transfection assay mimics an in vivo system in the laboratory. Importantly, activity in the co-transfection assay correlates very well with known in vivo activity, such that the co-transfection assay functions as a qualitative and quantitative predictor of a tested compounds in vivo pharmacology. , See e.g., T. Berger et al. 41 J. Steroid Biochem. Molec.
as §1
The reporter plasmid, MTV-LUC, contains the cDNA for firefly luciferase (LUC) under control of the mouse mammary tumor virus (MTV) long terminal repeat, a conditional promoter containing an androgen response element. See e.g., Berger et al. supra. In addition, pRS-β-Gal, coding for constitutive expression of E. coli β-galactosidase (β-Gal), was included as an internal control for evaluation of transfection efficiency and compound toxicity.
as §2, §3

[1] = agonist mode, luciferase production relative to DHT, hAR in CV-1 cells
[2] = antagonist mode, maximal inhibition of DHT-induced luciferase production, hAR in CV-1 cells
[3] = read-out: AR-wt Potency Antag, antagonist mode, Table 2

**Q.** With `C=CCN1c2ccc3[nH]c(=O)cc(C(F)(F)F)c3c2OC[C@H]1CC` [Compound 114, (3R)-4-Allyl-3-ethyl-2,3,4,7-tetrahydro-10-(trifluoromethyl)-8H-[1,4]oxazino[2,3-f]quinolin-8-one] as the compound, how does the IC50 (MR) read?
**A.** > 10000 nM

**Q.** And the EC50 (human AR)?
**A.** 53 nM

**Q.** And the “AR Agonist CV-1 Cells Efficacy” value (human AR; [1])?
**A.** 74%

**Q.** What about the “AR Antagonist CV-1 Cells Efficacy” value (human AR; [2]) of the same compound?
**A.** na (not active (i.e. efficacy of <20 and potency of >10,000 nM for the cotransfection assay)

**Q.** And the IC50 (human AR; [3])?
**A.** > 10000 nM

**Q.** Which IC50 (MR) does the source give for `CC[C@@H]1COc2c(ccc3[nH]c(=O)cc(C(F)(F)F)c23)N1CC(F)(F)F` [Compound 110, (3R)-3-Ethyl-2,3,4,7-tetrahydro-4-(2,2,2-trifluoroethyl)-10-(trifluoromethyl)-8H-[1,4]oxazino[2,3-f]quinolin-8-one] here?
**A.** 1270 nM

**Q.** What about the “AR Agonist CV-1 Cells Efficacy” value (human AR) of the same compound?
**A.** 89%

**Q.** And the “AR Antagonist CV-1 Cells Efficacy” value (human AR)?
**A.** na (key: na: not active (i.e. efficacy of <20 and potency of >10,000 nM for the cotransfection assay)

**Q.** And the EC50 (human AR)?
**A.** 0.6 nM

**Q.** What about the IC50 (human AR) of the same compound?
**A.** > 10000 nM

**Q.** And the IC50 (human AR; read-out: AR-wt Potency Antag)?
**A.** > 10000 nM

**Q.** Which IC50 (MR) does the source give for `CC(C)[C@@H]1COc2c(ccc3[nH]c(=O)cc(C(F)(F)F)c23)N1CC(F)(F)Cl` [Compound 124, (3R)-4-(2-Chloro-2,2-difluoroethyl)-2,3,4,7-tetrahydro-3-isopropyl-10-(trifluoromethyl)-8H-[1,4]oxazino[2,3-f]quinolin-8-one] here?
**A.** > 10000 nM

**Q.** What about the EC50 (human AR) of the same compound?
**A.** 2 nM

**Q.** What about the “AR Agonist CV-1 Cells Efficacy” value (human AR; [1]) of the same compound?
**A.** 70%

**Q.** And the “AR Antagonist CV-1 Cells Efficacy” value (human AR; [2])?
**A.** na (not active (i.e. efficacy of <20 and potency of >10,000 nM for the cotransfection assay)

**Q.** And the IC50 (human AR; [3])?
**A.** > 10000 nM
